In patent publication US9918470B2, “Pesticidal mixtures” (Syngenta Participations AG, priority 2011, dated 2018):

Experiments:
[1] = system: Tetranychus urticae (Two-Spotted Spider Mite); assay: Tetranychus urticae (Two-Spotted Spider Mite): sprayed bean leaf discs, mobile stages mortality after 8 days; assay type: in vivo
Description: Tetranychus urticae (Two-Spotted Spider Mite)
Bean leaf discs on agar in 24-well microtiter plates are sprayed with test solutions (DMSO). After drying, the leaf discs are infested with mite populations of mixed ages. 8 days later, discs are checked for mobile stages (I removed “mixed population”) mortality.
(§1) Columns 4 and 5 show the control observed from the compounds alone. […] When a compound applied alone gave no control at a particular rate, it is assumed that lower rates of that compound alone also give no control. DMET=deltamethrin, SPAT=spirotetramat, IMID=imidacloprid, B15=compound 15 in Table B.

[2] = system: Heliothis virescens (Tobacco Budworm); assay: Heliothis virescens (Tobacco Budworm): eggs on artificial diet in 24-well plate, larval mortality after 4 days; assay type: in vivo
Method: Heliothis virescens (Tobacco Budworm)
Eggs (0-24 h old) are placed in 24-well microtiter plate on artificial diet and treated with test solutions (DMSO) by pipetting. After an incubation period of 4 days, samples are checked for larval mortality.
as §1

O=[N+]([O-])NC1=NCCN1Cc1ccc(Cl)nc1 [IMID, imidacloprid]
0%: IMID observed control % ([1]; IMID alone 12.5 ppm) | IMID observed control % ([1]; IMID alone 25 ppm) | IMID observed control % ([1]; IMID alone 50 ppm) | IMID observed control % ([1]; IMID alone 100 ppm) | IMID observed control % ([1]; IMID alone 200 ppm) | IMID observed control % ([1]; IMID alone 400 ppm)

CC(NC(=O)C1CC1)c1ccc(N2CCC(c3cc(C(F)(F)F)cc(C(F)(F)F)c3)(C(F)(F)F)C2)cc1 (mixture of isomers) [Compound B15]
75%: B15 observed control % ([2]; B15 alone 0.2 ppm (Table 1)) | B15 observed control % ([2]; B15 alone 0.4 ppm (Table 1))
90%: B15 observed control % ([2]; B15 alone 0.4 ppm (Table 2)) | B15 observed control % ([2]; B15 alone 0.8 ppm (Table 2))
55%: B15 observed control % ([2]; B15 alone 0.1 ppm (Table 1))
0%: B15 observed control % ([2]; B15 alone 0.05 ppm (Table 2)) | B15 observed control % ([2]; B15 alone 0.1 ppm (Table 2)) | B15 observed control % ([1]; B15 alone 0.187 ppm) | B15 observed control % ([1]; B15 alone 0.375 ppm) | B15 observed control % ([1]; B15 alone 0.75 ppm)
85%: B15 observed control % ([2]; B15 alone 0.2 ppm (Table 2)) | B15 observed control % ([2]; B15 alone 0.8 ppm (Table 1))
30%: B15 observed control % ([1]; B15 alone 1.5 ppm)
95%: B15 observed control % ([2]; B15 alone 1.6 ppm (Table 1))

CC1(C)[C@H](C(=O)O[C@H](C#N)c2cccc(Oc3ccccc3)c2)[C@@H]1C=C(Br)Br [DMET, deltamethrin]
0%: DMET observed control % ([2]; DMET alone 0.0062 ppm) | DMET observed control % ([2]; DMET alone 0.0125 ppm) | DMET observed control % ([2]; DMET alone 0.025 ppm) | DMET observed control % ([2]; DMET alone 0.05 ppm) | DMET observed control % ([2]; DMET alone 0.1 ppm) | DMET observed control % ([2]; DMET alone 0.2 ppm) | DMET observed control % ([2]; DMET alone 0.4 ppm) | DMET observed control % ([2]; DMET alone 0.8 ppm)

CCOC(=O)OC1=C(c2cc(C)ccc2C)C(=O)N[C@]12CC[C@@H](OC)CC2 [SPAT, spirotetramat]
55%: SPAT observed control % ([2]; SPAT alone 200 ppm)
0%: SPAT observed control % ([2]; SPAT alone 6.25 ppm) | SPAT observed control % ([2]; SPAT alone 12.5 ppm) | SPAT observed control % ([2]; SPAT alone 25 ppm) | SPAT observed control % ([2]; SPAT alone 50 ppm) | SPAT observed control % ([2]; SPAT alone 100 ppm)
